Measurements published in US20040022789A1, “Methods and compositions for treating T cell mediated inflammatory/autoimmune diseases and disorders in subjects having a glucocorticoid regulation deficiency” (The Washington University, priority 2002, published 2004).

Assays:
Assay type in all cases: in vivo
[1] = system: adrenalectomized control mice; assay: Mortality after anti-CD3ε antibody in adrenalectomized control mice
Procedure: Adrenalectomy: Mice were adrenalectomized as previously described and rested one week before being subjected to experimentation. See, e.g., Muglia, L. J. et al, J. Clin. Invest., 105:1269-1277 (2000).
(§1) Pharmacologic and antibody treatment: Mice were injected intraperitoneally 100 μg anti-CD3p antibody (145-2C11) diluted in 250 μl PBS. Dexamethasone-treated mice were injected intraperitoneally with 200 μg dexamethasone phosphate just prior to and eight hours after anti-CD3ε antibody challenge. Neutralizing anti-IFNγ antibody (H22, 50 μg) was injected intraperitoneally one day before anti-CD3ε antibody administration as described previously. See, e.g., Ferran, C. et al., Eur. J. Immunol, 21:2349-2353 (1991). Mifepristone (RU 486, Sigma) was dissolved in 100% ethanol (50 mg/ml). Mifepristone-treated mice were given 0.5 mg (diluted in sesame oil) s.c. the night before and one hour prior to inflammatory challenge. Cox-2 selective inhibitor-treated mice were given 300 μg of either SC-236 or NS-398 suspended in PBS/1% Tween-80 or vehicle twice a day for two days by oral gavage as previously described by Gross, G. et al, Am J. Physiol. Regul. Integr. Comp. Physiol., 278:R^1415-R^1423 (2000).

[2] = system: control mice; assay: Mortality after anti-CD3ε antibody in control mice pre-treated with mifepristone (GR antagonist)
Procedure: (§2) Animal husbandry and plasma sampling: Mice were housed on a 12 h/12 h light/dark cycle with ad libitum access to rodent chow. Blood for measurement of corticosterone and cytokines was obtained by rapid retroorbital phlebotomy into heparinized capillary tubes with a total time from first handling the animal to completion of bleeding not exceeding 30 s. Plasma was separated by centrifugation and stored at −80° C. until assay. Unless otherwise noted, all mice used were 6-10 weeks old and of a C57BL/6×129/Sv genetic background.
as §1, with “Cox-2 selective inhibitor-treated mice were given 300 μg of either SC-236 or NS-398 suspended in PBS/1% Tween-80 or vehicle twice a day for two days by oral gavage as previously described by Gross, G. et al, Am J. Physiol. Regul. Integr. Comp. Physiol., 278:R^1415-R^1423 (2000).” left out

[3] = system: TGRko mice; assay: Mortality of TGRko mice after polyclonal T cell activation with anti-CD3ε antibody; conditions: 100 μg anti-CD3ε antibody i.p., treatment before (and after) challenge
Procedure: as §2
Generation of TGRko mice: To build a TGRko targeting vector (pGRloxPneo), a loxP site was inserted into the unique Sac I site in the GR gene region upstream of exon 2 between exons 1B and 1C. A PGKneo (gene encoding for resistance to neomycin) cassette was then subcloned containing flanking loxP sites into intron 2 of the GR gene using oligonucleotide linkers. To obtain ES clones having replaced one copy of the endogenous murine GR locus with the GRloxPneo allele, TC1 ES cells were electroporated in the presence of linearized pGRloxPneo as has previously been described (See, e.g., Muglia, L. J. et al., J. Clin. Invest., 93:2066-2072 (1994)). DNA from 87 G418 resistant embryonic stem cell (ES) clones was analyzed by Southern blot, employing a probe external to the flanking regions within our targeting vector. […]

[4] = system: IL-2; assay: Plasma IL-2 after anti-CD3ε antibody (ELISA); conditions: TGRko mice; dexamethasone 200 μg before and 8 hours after anti-CD3ε antibody
Procedure: as §2
Cytokine Measurements: Plasma cytokines were measured according to manufacturer's instructions (Pharmingen).
as §1, with “Cox-2 selective inhibitor-treated mice were given 300 μg of either SC-236 or NS-398 suspended in PBS/1% Tween-80 or vehicle twice a day for two days by oral gavage as previously described by Gross, G. et al, Am J. Physiol. Regul. Integr. Comp. Physiol., 278:R^1415-R^1423 (2000).” left out

## NS(=O)(=O)c1ccc(-n2nc(C(F)(F)F)cc2-c2ccc(Cl)cc2)cc1 [SC-236]
[1]; ADX+SC-236 (ADX+vehicle 4/5, Sham operated+vehicle 0/3)
  mice died within eight hours of anti-CD3ε antibody treatment: 2/6
[1]; adrenalectomized control mice, shorter timescale
  rescue from mortality: essentially the same degree of rescue
[2]; control mice treated with mifepristone+SC-236 (m/s) compared to vehicle-treated counterparts
  protection from mortality: significantly protected
[3]
  mortality / lethality after anti-CD3ε antibody administration: Protection from lethality

## C[C@@H]1C[C@H]2[C@@H]3CCC4=CC(=O)C=C[C@]4(C)[C@@]3(F)[C@@H](O)C[C@]2(C)[C@@]1(O)C(=O)CO [dexamethasone]
[4]
  plasma IL-2: no significant effect

## CC#C[C@]1(O)CC[C@H]2[C@@H]3CCC4=CC(=O)CCC4=C3[C@@H](c3ccc(N(C)C)cc3)C[C@@]21C [mifepristone]
[2]; control mice, mifepristone+vehicle (m/v) compared to vehicle controls (v/v)
  susceptibility to the lethal effects of T cell activation: significantly more susceptible
